According to article PMC6386617 (Molecular cell, 2018):

Experiments:
human eIF4A1 (WT) [1] = target: human eIF4A1 (WT) (Homo sapiens, UniProt P60842, F163L/I199M); assay: UV crosslinking of γ […]-ATP; type: biochemical; conditions: 10 μM protein, 0.1 μM ATP, 37 °C (crosslinking); labelled compound
human eIF4A1 (WT) [2] = target: human eIF4A1 (WT) (Homo sapiens, UniProt P60842); assay: UV crosslinking of γ […]-ATP; type: biochemical; conditions: 10 μM protein, 0.1 μM ATP, 37 °C (crosslinking); labelled compound
eIF4A1 (19-406) = eIF4A1 (19-406) (Homo sapiens, UniProt P60842 19-406); assay: X-ray crystallography
Chain of eIF4A1 (19-406) (P60842 19-406): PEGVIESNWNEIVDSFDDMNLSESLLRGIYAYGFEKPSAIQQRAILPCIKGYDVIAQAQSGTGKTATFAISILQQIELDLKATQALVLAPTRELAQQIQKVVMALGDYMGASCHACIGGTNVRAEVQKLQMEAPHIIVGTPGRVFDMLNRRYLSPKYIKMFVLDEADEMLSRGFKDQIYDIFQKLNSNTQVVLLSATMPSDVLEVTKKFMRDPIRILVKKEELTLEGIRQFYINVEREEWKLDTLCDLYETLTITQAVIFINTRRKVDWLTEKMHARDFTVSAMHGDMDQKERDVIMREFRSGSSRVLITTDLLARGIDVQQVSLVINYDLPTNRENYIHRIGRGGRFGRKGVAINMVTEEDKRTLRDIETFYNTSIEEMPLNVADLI

Chain of human eIF4A1 (WT) (Homo sapiens, UniProt P60842) (P60842 2-406): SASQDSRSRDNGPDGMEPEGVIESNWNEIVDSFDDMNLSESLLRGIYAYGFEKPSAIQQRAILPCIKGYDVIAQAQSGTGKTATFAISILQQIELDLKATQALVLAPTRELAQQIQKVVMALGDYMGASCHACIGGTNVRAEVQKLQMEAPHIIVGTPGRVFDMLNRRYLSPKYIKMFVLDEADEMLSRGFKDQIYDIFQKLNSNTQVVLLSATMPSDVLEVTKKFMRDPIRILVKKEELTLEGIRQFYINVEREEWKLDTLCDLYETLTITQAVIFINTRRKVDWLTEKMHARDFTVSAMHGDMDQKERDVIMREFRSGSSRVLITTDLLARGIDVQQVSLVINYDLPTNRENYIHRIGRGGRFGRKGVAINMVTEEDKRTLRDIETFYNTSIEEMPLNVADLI
Chain of human eIF4A1 (WT) (Homo sapiens, UniProt P60842, F163L/I199M) (P60842 2-406 F163L/I199M): as the sequence (P60842 2-406) above, with F162L, I198M counted along it

Molecule	UV crosslinking of γ 32P-ATP; TLC ATPase assay (human eIF4A1 (WT) [1])	UV crosslinking of γ 32P-ATP; TLC ATPase assay (human eIF4A1 (WT) [2])	binding result (eIF4A1 (19-406))
Nc1ncnc2c1ncn2[C@@H]1O[C@H](COP(=O)(O)OP(=O)(O)OP(=O)(O)O)[C@@H](O)[C@H]1O [ATP]	neither single nor double mutations disrupt the basic features of eIF4A1	tested a variety of their biochemical properties: ATP binding, ATP hydrolysis	
AGAGAGAGAG (ssRNA) [(AG)5 polypurine RNA]			binds
